In patent US20260250318A1, “COMPOSITIONS AND METHODS FOR CROSSING THE BLOOD BRAIN BARRIER” (VOYAGER THERAPEUTICS, INC., priority 2022, published 2026):

Columns and labels:
brain = assay: Matured TTM-001 and TTM-002 variants, NGS enrichment in mouse brain; type: in vivo, mice; settings: relative to AAV9 control
[1] = tested on: brains, heart, liver, muscle, and DRG of the NHPs; assay: Maturation of TTM-001 and TTM-002 capsids, NGS enrichment in NHP tissues; type: in vivo; settings: relative to AAV9 control
Procedure, shortened: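 Variants carry mutations within and flanking the loop IV peptide insert: positions 450–466 were triplet-randomized, while positions 449–466 received low-frequency point mutations. The combined pool went into two NHPs, and each peptide was scored by NGS enrichment ratio against AAV9.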

[2] = NGS fold-enrichment, brain of mice
[3] = NGS fold-enrichment, mouse brain
[4] = NGS fold-enrichment of RNA, NHP brain
[5] = NGS fold-enrichment, DRG of NHPs
[6] = NGS fold-enrichment, NHP liver DNA
[7] = NGS fold-enrichment, NHP liver RNA
[8] = NGS fold-enrichment, NHP muscle
[9] = NGS fold-enrichment, RNA, brain of NHPs
[10] = NGS fold-enrichment, heart of NHPs
[11] = NGS fold-enrichment, liver DNA of NHPs
[12] = NGS fold-enrichment, liver RNA of NHPs
[13] = NGS fold-enrichment, muscle of NHPs
[14] = NGS fold-enrichment of matured AAV capsid variants, NHP brain, RNA

| Sequence | Fold Enrichment relative to AAV9, Brain (Mouse) (brain; [2]) [fold] | Fold Enrichment relative to AAV9, Brain (Mouse) (brain; [3]) [fold] | Fold Enrichment relative to AAV9, Brain (NHP) [1, 4] [fold] | Fold Enrichment relative to AAV9, DRG (NHP) [1, 5] [fold] | Fold Enrichment relative to AAV9, DRG (NHP) ([1]; NGS fold-enrichment, NHP DRG) [fold] | Fold Enrichment relative to AAV9, Heart (NHP) ([1]; NGS fold-enrichment, NHP heart) [fold] | Fold Enrichment relative to AAV9, Liver DNA (NHP) [1, 6] [fold] | Fold Enrichment relative to AAV9, Liver RNA (NHP) [1, 7] [fold] | Fold Enrichment relative to AAV9, Muscle (NHP) [1, 8] [fold] | Fold Enrichment relative to AAV9, Brain (NHP) [1, 9] [fold] | Fold Enrichment relative to AAV9, Heart (NHP) [1, 10] [fold] | Fold Enrichment relative to AAV9, Liver DNA (NHP) [1, 11] [fold] | Fold Enrichment relative to AAV9, Liver RNA (NHP) [1, 12] [fold] | Fold Enrichment relative to AAV9, Muscle (NHP) [1, 13] [fold] | other results |
| --- | --- | --- | --- | --- | --- | --- | --- | --- | --- | --- | --- | --- | --- | --- | --- |
| KTSSGSGSPHSKAQYQQT | 58.143 | 58.143 | 87.304 | 0.000 | 0.000 | 0.000 | 0.299 | 0.000 | 0.000 | 87.304 | 0.000 | 0.299 | 0.000 | 0.000 |  |
| KTSYGNGSPHSKAQNQQT | 105.894 | 105.894 | 105.937 | 0.000 | 0.000 | 0.000 | 0.114 | 0.000 | 0.000 | 105.937 | 0.000 | 0.114 | 0.000 | 0.000 |  |
| KTTNGHDSPHKSGQNLLT |  | 15.192 | 77.738 |  | 0.130 | 0.064 | 0.326 | 0.424 | 0.185 |  |  |  |  |  |  |
| KTTNGHDSPHKSGQNQQG |  | 10.555 | 85.113 |  | 0.000 | 0.107 | 0.017 | 0.000 | 0.000 |  |  |  |  |  |  |
| KTTNGHDSPHKSGQTQLT |  | 17.885 | 115.637 |  | 0.000 | 0.283 | 0.321 | 0.052 | 0.000 |  |  |  |  |  |  |
| KTTNGQDSPHKSGQNQQS |  | 7.592 | 92.419 |  | 0.000 | 0.037 | 0.079 | 0.000 | 0.043 |  |  |  |  |  |  |
| KTTNGSGSPHSKAHNQLT | 65.505 |  |  | 0.000 |  |  |  |  |  | 69.062 | 0.000 | 0.000 | 0.708 | 0.000 |  |
| KTTNGSGSPHSKAQYQHT | 83.337 |  |  | 0.000 |  |  |  |  |  | 67.325 | 0.000 | 0.080 | 1.378 | 0.000 |  |
| KTVDGHDSPHKSGQKQQT |  | 7.200 | 78.802 |  | 0.000 | 0.069 | 0.342 | 0.157 | 0.000 |  |  |  |  |  |  |
| KTVHGNGSPHSKAQNQQT | 97.003 | 97.003 | 90.073 | 0.000 | 0.000 | 0.000 | 0.304 | 0.000 | 0.000 | 90.073 | 0.000 | 0.304 | 0.000 | 0.000 |  |
| KTVHGSGSPHSKAQSQQT |  |  |  |  |  |  |  |  |  |  |  |  |  |  | Fold Enrichment relative to AAV9, Brain (Mouse) (brain; mouse brain): 54.185 fold; Fold Enrichment relative to AAV9, Brain (NHP) [1, 14]: 51.057 fold; Fold Enrichment relative to AAV9, DRG (NHP) ([1]; NHP DRG): 0.000 fold; Fold Enrichment relative to AAV9, Heart (NHP) ([1]; NHP heart): 0.000 fold; Fold Enrichment relative to AAV9, Liver DNA (NHP) ([1]; NHP liver, DNA): 0.146 fold; Fold Enrichment relative to AAV9, Liver RNA (NHP) ([1]; NHP liver, RNA): 0.143 fold; Fold Enrichment relative to AAV9, Muscle (NHP) ([1]; NHP muscle): 0.000 fold |
| KTVIGSGSPHSKALNQQT | 60.369 |  |  | 0.000 |  |  |  |  |  | 62.358 | 0.310 | 0.245 | 0.062 | 0.000 |  |
| KTVIGSGSPHSKSQNQQT |  |  |  |  |  |  |  |  |  |  |  |  |  |  | Fold Enrichment relative to AAV9, Brain (Mouse) (brain; mouse brain): 69.121 fold; Fold Enrichment relative to AAV9, Brain (NHP) [1, 14]: 54.603 fold; Fold Enrichment relative to AAV9, DRG (NHP) ([1]; NHP DRG): 0.000 fold; Fold Enrichment relative to AAV9, Heart (NHP) ([1]; NHP heart): 0.000 fold; Fold Enrichment relative to AAV9, Liver DNA (NHP) ([1]; NHP liver, DNA): 0.106 fold; Fold Enrichment relative to AAV9, Liver RNA (NHP) ([1]; NHP liver, RNA): 0.000 fold; Fold Enrichment relative to AAV9, Muscle (NHP) ([1]; NHP muscle): 0.000 fold |
| KTVKDSGSPHSKAQNQQT | 87.334 |  |  | 0.000 |  |  |  |  |  | 60.216 | 0.019 | 0.251 | 0.443 | 0.000 |  |
| KTVKGSGSPHSKAQDQQT | 58.114 |  |  | 0.000 |  |  |  |  |  | 61.175 | 0.041 | 0.090 | 0.432 | 0.000 |  |
| KTVNAHDSPHKSGQNQLT |  | 29.254 | 79.137 |  | 0.000 | 0.233 | 0.045 | 0.753 | 0.178 |  |  |  |  |  |  |
| KTVNASGSPHSKAQNQLT |  |  |  |  |  |  |  |  |  |  |  |  |  |  | Fold Enrichment relative to AAV9, Brain (Mouse) (brain; mouse brain): 99.559 fold; Fold Enrichment relative to AAV9, Brain (NHP) [1, 14]: 51.249 fold; Fold Enrichment relative to AAV9, DRG (NHP) ([1]; NHP DRG): 0.000 fold; Fold Enrichment relative to AAV9, Heart (NHP) ([1]; NHP heart): 0.000 fold; Fold Enrichment relative to AAV9, Liver DNA (NHP) ([1]; NHP liver, DNA): 0.268 fold; Fold Enrichment relative to AAV9, Liver RNA (NHP) ([1]; NHP liver, RNA): 0.000 fold; Fold Enrichment relative to AAV9, Muscle (NHP) ([1]; NHP muscle): 0.000 fold |
| KTVNGGGSPHSKAQHQQT |  |  |  |  |  |  |  |  |  |  |  |  |  |  | Fold Enrichment relative to AAV9, Brain (Mouse) (brain; mouse brain): 138.544 fold; Fold Enrichment relative to AAV9, Brain (NHP) [1, 14]: 58.602 fold; Fold Enrichment relative to AAV9, DRG (NHP) ([1]; NHP DRG): 0.729 fold; Fold Enrichment relative to AAV9, Heart (NHP) ([1]; NHP heart): 0.000 fold; Fold Enrichment relative to AAV9, Liver DNA (NHP) ([1]; NHP liver, DNA): 0.043 fold; Fold Enrichment relative to AAV9, Liver RNA (NHP) ([1]; NHP liver, RNA): 0.000 fold; Fold Enrichment relative to AAV9, Muscle (NHP) ([1]; NHP muscle): 0.000 fold |
| KTVNGGGSPHSKAQNHQT |  |  |  |  |  |  |  |  |  |  |  |  |  |  | Fold Enrichment relative to AAV9, Brain (Mouse) (brain; mouse brain): 67.188 fold; Fold Enrichment relative to AAV9, Brain (NHP) [1, 14]: 54.246 fold; Fold Enrichment relative to AAV9, DRG (NHP) ([1]; NHP DRG): 0.375 fold; Fold Enrichment relative to AAV9, Heart (NHP) ([1]; NHP heart): 0.024 fold; Fold Enrichment relative to AAV9, Liver DNA (NHP) ([1]; NHP liver, DNA): 0.146 fold; Fold Enrichment relative to AAV9, Liver RNA (NHP) ([1]; NHP liver, RNA): 0.000 fold; Fold Enrichment relative to AAV9, Muscle (NHP) ([1]; NHP muscle): 0.000 fold |
| KTVNGGGSPHSKAQNLQT |  |  |  |  |  |  |  |  |  |  |  |  |  |  | Fold Enrichment relative to AAV9, Brain (Mouse) (brain; mouse brain): 83.215 fold; Fold Enrichment relative to AAV9, Brain (NHP) [1, 14]: 52.788 fold; Fold Enrichment relative to AAV9, DRG (NHP) ([1]; NHP DRG): 0.000 fold; Fold Enrichment relative to AAV9, Heart (NHP) ([1]; NHP heart): 0.031 fold; Fold Enrichment relative to AAV9, Liver DNA (NHP) ([1]; NHP liver, DNA): 0.165 fold; Fold Enrichment relative to AAV9, Liver RNA (NHP) ([1]; NHP liver, RNA): 0.000 fold; Fold Enrichment relative to AAV9, Muscle (NHP) ([1]; NHP muscle): 0.000 fold |
| KTVNGGGSPHSKAQNQQS | 61.847 |  |  | 0.062 |  |  |  |  |  | 59.871 | 0.020 | 0.185 | 0.080 | 0.000 |  |
